The target in data set [1] is T1, TGF-beta receptor type-1 (Mus musculus, UniProt Q64729).
T1 sequence (Q64729 whole entry): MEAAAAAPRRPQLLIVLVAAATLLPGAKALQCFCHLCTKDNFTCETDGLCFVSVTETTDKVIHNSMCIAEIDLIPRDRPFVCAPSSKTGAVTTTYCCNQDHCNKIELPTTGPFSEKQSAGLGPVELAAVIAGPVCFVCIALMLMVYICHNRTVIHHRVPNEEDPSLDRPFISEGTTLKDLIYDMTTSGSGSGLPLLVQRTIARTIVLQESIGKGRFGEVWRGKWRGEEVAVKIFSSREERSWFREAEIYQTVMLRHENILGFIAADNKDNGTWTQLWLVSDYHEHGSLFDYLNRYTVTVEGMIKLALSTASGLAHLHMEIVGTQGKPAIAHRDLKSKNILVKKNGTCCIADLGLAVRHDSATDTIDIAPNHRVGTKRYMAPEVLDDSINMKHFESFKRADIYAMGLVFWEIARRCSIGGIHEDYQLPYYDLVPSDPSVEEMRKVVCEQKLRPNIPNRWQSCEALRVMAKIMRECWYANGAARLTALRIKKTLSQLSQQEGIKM
Briefly: Inhibition of ALK5 signaling in mouse NIH3T3 cells transfected with (CAGA)12-luciferase reporter incubated for 18 hrs in presence of TGF-beta1 by dual-luciferase reporter assay. The class given is cell-based. On the technique in general: Reporter assays use an easily measured gene product as a stand-in for the process of interest.

The target in data set [2] is T2, TGF-beta receptor type-1 (Homo sapiens, UniProt P36897).
T2 sequence (P36897 whole entry): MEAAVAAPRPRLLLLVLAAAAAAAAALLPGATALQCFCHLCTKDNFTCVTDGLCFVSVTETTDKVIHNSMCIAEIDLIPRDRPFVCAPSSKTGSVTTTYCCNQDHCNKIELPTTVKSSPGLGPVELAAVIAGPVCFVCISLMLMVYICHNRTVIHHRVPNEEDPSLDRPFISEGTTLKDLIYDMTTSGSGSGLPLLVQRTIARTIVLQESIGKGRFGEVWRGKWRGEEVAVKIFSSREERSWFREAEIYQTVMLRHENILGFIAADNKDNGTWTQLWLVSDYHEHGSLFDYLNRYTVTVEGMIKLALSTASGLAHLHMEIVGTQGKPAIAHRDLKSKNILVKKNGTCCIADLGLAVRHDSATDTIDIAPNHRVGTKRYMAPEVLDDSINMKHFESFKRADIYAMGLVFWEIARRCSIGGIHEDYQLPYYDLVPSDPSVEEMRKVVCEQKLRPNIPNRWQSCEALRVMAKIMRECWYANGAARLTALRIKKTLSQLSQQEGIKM
Description: Inhibition of TGFbetaR1 (unknown origin).

The nature of data set [3]: in vitro. The settings on record: human, BEAS-2B cells.
A short description of data set [4]: in vitro. The note with it: human, HEK293T cells.
In the next data set the test system is 4T1. Briefly: cells. The settings on record: Mus musculus, 4T1, 72 h.
Another data set deals with Kasumi 1. Briefly: cells. The note with it: Homo sapiens, Kasumi 1, 72 h.
Data set [5] is described as follows: in vitro. The note with it: human, L02 cells.
The next data set has as its system U-251. Briefly: cells. The note with it: Homo sapiens, U-251, 72 h.
Data set [6] in a line: in vitro. The note with it: human, MCF-10A cells.
Another data set relates to HepG2. Briefly: cells. The settings on record: Homo sapiens, HepG2, 72 h.
For the next data set, the system named is MV4-11. Briefly: cells. The note with it: Homo sapiens, MV4-11, 72 h.
A further data set relates to Panc02. Description: cells. The note with it: Mus musculus, Panc02, 72 h.
A further data set deals with MDA-MB-231. Description: cells. The settings on record: Homo sapiens, MDA-MB-231, 72 h.
A further data set deals with PANC-1. Briefly: cells. The settings on record: Homo sapiens, PANC-1, 72 h.
The target of data set [7] is Voltage-gated inwardly rectifying potassium channel KCNH2 (Homo sapiens, UniProt Q12809). Briefly: Inhibition of human ERG stably expressed in HEK293 cells by manual patch clamp method. It is filed as toxicity, cell-based. For orientation: Patch clamp records ionic current or voltage across a cell membrane.
Chain of Voltage-gated inwardly rectifying potassium channel KCNH2 (Q12809 whole entry): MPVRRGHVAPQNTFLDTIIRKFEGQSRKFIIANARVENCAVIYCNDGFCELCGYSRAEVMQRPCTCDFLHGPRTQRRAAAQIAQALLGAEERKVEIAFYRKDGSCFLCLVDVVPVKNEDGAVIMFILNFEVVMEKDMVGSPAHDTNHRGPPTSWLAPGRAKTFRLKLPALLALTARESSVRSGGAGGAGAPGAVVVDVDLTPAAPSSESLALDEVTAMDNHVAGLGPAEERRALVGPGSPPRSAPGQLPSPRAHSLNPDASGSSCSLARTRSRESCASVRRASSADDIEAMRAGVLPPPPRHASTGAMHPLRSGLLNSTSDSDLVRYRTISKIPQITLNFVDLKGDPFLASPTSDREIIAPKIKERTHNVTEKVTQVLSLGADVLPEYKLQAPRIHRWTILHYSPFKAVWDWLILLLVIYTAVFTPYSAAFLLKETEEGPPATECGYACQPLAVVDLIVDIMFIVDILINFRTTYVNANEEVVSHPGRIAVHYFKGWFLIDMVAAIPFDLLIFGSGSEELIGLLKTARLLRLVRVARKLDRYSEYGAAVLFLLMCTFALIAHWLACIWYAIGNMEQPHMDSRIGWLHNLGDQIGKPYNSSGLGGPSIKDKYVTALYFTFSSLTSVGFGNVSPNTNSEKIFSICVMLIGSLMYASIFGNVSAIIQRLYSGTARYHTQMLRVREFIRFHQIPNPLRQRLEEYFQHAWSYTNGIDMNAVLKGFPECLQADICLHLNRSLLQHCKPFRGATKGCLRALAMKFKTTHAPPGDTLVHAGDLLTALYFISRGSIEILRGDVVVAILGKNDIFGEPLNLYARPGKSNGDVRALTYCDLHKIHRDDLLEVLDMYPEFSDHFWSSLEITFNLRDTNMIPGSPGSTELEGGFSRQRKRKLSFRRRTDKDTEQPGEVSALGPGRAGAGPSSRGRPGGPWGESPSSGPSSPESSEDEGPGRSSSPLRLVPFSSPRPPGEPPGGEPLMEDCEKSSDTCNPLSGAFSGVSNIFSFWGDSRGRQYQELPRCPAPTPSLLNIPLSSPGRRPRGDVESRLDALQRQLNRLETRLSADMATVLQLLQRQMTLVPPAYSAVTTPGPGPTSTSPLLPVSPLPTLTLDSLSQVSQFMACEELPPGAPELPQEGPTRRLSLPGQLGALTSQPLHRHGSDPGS
Data set [8] has as its target T2, TGF-beta receptor type-1. Briefly: Inhibition of ALK5 (unknown origin) incubated for 2 hrs in presence of ATP by ADP-Glo reagent based luminescence plate reader analysis.

Usually EC50 stands for the concentration giving half of the maximal effect. One may read the IC50 as the concentration that inhibits the measured activity by half. One may read the CC50 as the concentration at which the toxic effect on the cells reaches its halfway point. Read a low CC50 as greater toxicity to the cells.

Take `COc1cc(F)cc(-c2nn(CCC3CCN(C(C)=O)CC3)c3ncnc(N)c23)c1`: at TGF-beta receptor type-1 [1], the EC50 stood at 430 nM.
Regarding `N#Cc1ccc(S(=O)(=O)N2CCC(CCn3nc(-c4ccc5[nH]ccc5c4)c4c(N)ncnc43)CC2)cc1`, the EC50 at TGF-beta receptor type-1 [1] is > 1000 nM.
The same measure, in the same setting: the same measure for `CC(C)(C)OC(=O)N1CCC(CCCn2nc(-c3ccc4[nH]ccc4c3)c3c(N)ncnc32)CC1`: 998 nM.
Consider `Cc1cccc(-c2nc(C34CCC(C(N)=O)(CC3)CC4)[nH]c2-c2ccc3c(c2)OCO3)n1`, for which the midpoint of inhibition at TGF-beta receptor type-1 [2], the IC50, lay at 47 nM.
For the compound `CC(C)(C)OC(=O)N1CC(Cn2nc(-c3ccc4[nH]ccc4c3)c3c(N)ncnc32)C1`, the EC50 at TGF-beta receptor type-1 [1] came out at 750 nM.
As for `CCS(=O)(=O)N1CCC(CCn2nc(-c3ccc4[nH]ccc4c3)c3c(N)ncnc32)CC1`, on TGF-beta receptor type-1 [1], the EC50 turned out to be 90.8 nM.
As to `Cc1cccc(-c2nn3c(c2-c2ccnc4ccc(C(N)=O)cc24)CCC3)n1` [GALUNISERTIB], the CC50 at 72 h in “in vitro [3]” is 13000 nM; in “in vitro [4]” it was > 20000 nM; in “in vitro [5]” it was 17400 nM; in “in vitro [6]”, 19900 nM. The CC50 is > 20000 nM with 4T1; 3120 nM with Kasumi 1; 17000 nM in the data set on U-251; 5460 nM in the data set with HepG2; > 20000 nM in the data set with MV4-11; > 20000 nM in the data set on Panc02. The CC50 in the data set with MDA-MB-231 and in the data set with PANC-1 was > 20000 nM throughout.
Take `CC(=O)N1CCC(CCn2nc(-c3ccc4[nH]ncc4c3)c3c(N)ncnc32)CC1`: at TGF-beta receptor type-1 [1], the concentration giving a half-maximal response (EC50) was found to be 295 nM.
Still for that read-out and setting: the same measure for `Nc1ncnc2c1c(-c1ccc3[nH]ccc3c1)nn2CCC1CCN(S(=O)(=O)c2cccc(Cl)c2Cl)CC1`: 848 nM.
On the same count and under the same terms, the same measure for `C#CCCCC(=O)N1CCC(CCn2nc(-c3ccc4[nH]ccc4c3)c3c(N)ncnc32)CC1`: 465 nM; for `Cc1ccc(S(=O)(=O)N2CCC(CCn3nc(-c4ccc5[nH]ccc5c4)c4c(N)ncnc43)CC2)cc1`: 348 nM.
Same read-out and setting: the result for `CC(C)(C)OC(=O)N1CCCC(Cn2nc(-c3ccc4[nH]ccc4c3)c3c(N)ncnc32)C1` (configuration not stated) reads 689 nM; that for `CC(C)S(=O)(=O)N1CCC(CCn2nc(-c3ccc4[nH]ccc4c3)c3c(N)ncnc32)CC1`, 131 nM.
Take `COc1ccc(S(=O)(=O)N2CCC(CCn3nc(-c4ccc5[nH]ccc5c4)c4c(N)ncnc43)CC2)c(OC)c1`: the EC50 at TGF-beta receptor type-1 [1] is > 1000 nM.
Same read-out and setting: the same measure for `CC(C)(C)OC(=O)N1CCC(CCn2nc(-c3ccc4[nH]ccc4c3)c3c(N)ncnc32)CC1`: 441 nM.
On the same count and under the same terms, the same measure for `Nc1ncnc2c1c(-c1ccc3[nH]ccc3c1)nn2CCC1CCN(S(=O)(=O)c2ccc(C(F)(F)F)cc2)CC1`: 303 nM; for `CC(=O)N1CCC(CCn2nc(-c3ccc4cc[nH]c4c3)c3c(N)ncnc32)CC1`: > 1000 nM.
`CC(=O)N1CCC(CCn2nc(-c3ccc4[nH]cc(C)c4c3)c3c(N)ncnc32)CC1`: the EC50 at TGF-beta receptor type-1 [1] was determined as 15.3 nM. This compound also displayed an IC50 in data set [7] of 9870 nM.
Consider `CC(=O)N1CCC(CCn2nc(-c3ccc4[nH]ccc4c3)c3c(N)ncnc32)CC1`, for which the EC50 at TGF-beta receptor type-1 [1] turned out to be 29.6 nM. The compound also showed an IC50 in [7] of 11700 nM.
Take `CC(=O)N1CCC(CCn2nc(-c3ccc4ncccc4c3)c3c(N)ncnc32)CC1`: the EC50 on TGF-beta receptor type-1 [1] is > 1000 nM.
As to `Nc1ncnc2c1c(-c1ccc3[nH]ccc3c1)nn2CCC1CCN(S(=O)(=O)c2cc(Cl)ccc2Cl)CC1`, at TGF-beta receptor type-1 [1], the EC50 is > 1000 nM.
Same read-out and setting: the result for `CC(C)(C)OC(=O)N1CCC(Cn2nc(-c3ccc4[nH]ccc4c3)c3c(N)ncnc32)CC1` reads 374 nM; that for `CCCS(=O)(=O)N1CCC(CCn2nc(-c3ccc4[nH]ccc4c3)c3c(N)ncnc32)CC1`, 45.9 nM; that for `Nc1ncnc2c1c(-c1ccc3[nH]ccc3c1)nn2CCC1CCN(C(=O)OCc2ccccc2)CC1`, > 1000 nM.
Still for that read-out and setting: the result for `Nc1ncnc2c1c(-c1ccc3[nH]ccc3c1)nn2CCC1CCN(S(=O)(=O)c2ccccc2Cl)CC1` reads 856 nM; that for `CC(C)(C)c1ccc(S(=O)(=O)N2CCC(CCn3nc(-c4ccc5[nH]ccc5c4)c4c(N)ncnc43)CC2)cc1`, > 1000 nM; that for `Nc1ncnc2c1c(-c1ccc3[nH]ccc3c1)nn2CCC1CCNCC1`, > 1000 nM.
Still for that read-out and setting: the same measure for `Nc1ncnc2c1c(-c1ccc3[nH]ccc3c1)nn2CCC1CCN(S(=O)(=O)c2ccc3ccccc3c2)CC1`: 971 nM; for `CC(=O)Nc1cccc(-c2nn(CCC3CCN(C(C)=O)CC3)c3ncnc(N)c23)c1`: > 1000 nM; for `CC(=O)N1CCC(CCn2nc(-c3ccc4ncsc4c3)c3c(N)ncnc32)CC1`: 130 nM.
Consider `Nc1ncnc2c1c(-c1ccc3[nH]ccc3c1)nn2CCC1CCN(S(=O)(=O)c2cc(F)cc(F)c2)CC1`, for which the EC50 on TGF-beta receptor type-1 [1] is > 1000 nM.
Consider `Nc1ncnc2c1c(-c1ccc3[nH]ccc3c1)nn2CCC1CCN(S(=O)(=O)c2cccc(Cl)c2)CC1`, for which, at TGF-beta receptor type-1 [1], the EC50 came to 1320 nM.
The same measure, in the same setting: the same measure for `Nc1ncnc2c1c(-c1ccc3[nH]ccc3c1)nn2CCC1CCN(C(=O)c2ccccc2)CC1`: 273 nM; for `CC(=O)N1CCC(CCn2nc(-c3ccc4nccnc4c3)c3c(N)ncnc32)CC1`: > 1000 nM.
The same measure, in the same setting: the result for `Nc1ncnc2c1c(-c1ccc3[nH]ccc3c1)nn2CCC1CCN(S(=O)(=O)c2cccs2)CC1` reads 607 nM; that for `CC(C)(C)C(=O)N1CCC(CCn2nc(-c3ccc4[nH]ccc4c3)c3c(N)ncnc32)CC1`, 138 nM; that for `CCCCS(=O)(=O)N1CCC(CCn2nc(-c3ccc4[nH]ccc4c3)c3c(N)ncnc32)CC1`, 176 nM.
On the same count and under the same terms, the same measure for `CC(=O)N1CCC(CCn2nc(-c3ccc4c(c3)OCO4)c3c(N)ncnc32)CC1`: > 1000 nM.
In the case of `CC(=O)N1CCC(CCn2nc(-c3ccc4[nH]c(C)cc4c3)c3c(N)ncnc32)CC1`, the EC50 at TGF-beta receptor type-1 [1] was 105 nM.
With `CC(=O)N1CCC(CCn2nc(-c3ccc(N)cc3C)c3c(N)ncnc32)CC1`, the EC50 on TGF-beta receptor type-1 [1] stood at 302 nM.
Same read-out and setting: the same measure for `CC(=O)N1CCC(CCn2nc(-c3ccc4c(ccn4C)c3)c3c(N)ncnc32)CC1`: 283 nM.
As for `Nc1ncnc2c1c(-c1ccc3[nH]ccc3c1)nn2CCC1CCN(S(=O)(=O)C2CC2)CC1`, the EC50 on TGF-beta receptor type-1 [1] is 105 nM.
On the same count and under the same terms, the same measure for `COc1ccccc1C(=O)N1CCC(CCn2nc(-c3ccc4[nH]ccc4c3)c3c(N)ncnc32)CC1`: 665 nM; for `Nc1ncnc2c1c(-c1ccc3[nH]ccc3c1)nn2CCC1CCN(S(=O)(=O)c2ccc(Cl)cc2Cl)CC1`: > 1000 nM.
Still for that read-out and setting: the result for `CC(=O)N1CCC(CCn2nc(-c3coc4ccccc34)c3c(N)ncnc32)CC1` reads 682 nM.
In the case of `CC(C)(C)OC(=O)N1CCC(Cn2nc(-c3ccc4[nH]ccc4c3)c3c(N)ncnc32)C1` (configuration not stated), on TGF-beta receptor type-1 [8], the IC50 is 155 nM. Further, the EC50 at TGF-beta receptor type-1 [1] stood at 363 nM.
`Nc1ncnc2c1c(-c1ccc3[nH]ccc3c1)nn2CCC1CCN(S(=O)(=O)c2ccccc2F)CC1`: the EC50 at TGF-beta receptor type-1 [1] was 339 nM.
On to `Nc1ncnc2c1c(-c1ccc3[nH]ccc3c1)nn2-c1ccc2cc[nH]c2c1`, for which the EC50 at TGF-beta receptor type-1 [1] was 525 nM.
On the same count and under the same terms, the same measure for `CC(=O)c1nn(CCC2CCN(C(C)=O)CC2)c2ncnc(N)c12`: 485 nM; for `Nc1ncnc2c1c(-c1ccc3[nH]ccc3c1)nn2CCC1CCN(S(=O)(=O)c2cccnc2)CC1`: > 1000 nM.
For the compound `CC(=O)N1CCC(CCn2nc(-c3cc4cc[nH]c4cc3C)c3c(N)ncnc32)CC1`, the EC50 on TGF-beta receptor type-1 [1] was 403 nM.
For the compound `COc1ccc(S(=O)(=O)N2CCC(CCn3nc(-c4ccc5[nH]ccc5c4)c4c(N)ncnc43)CC2)cc1`, the EC50 at TGF-beta receptor type-1 [1] stood at 132 nM.
With `CC(C)(C)OC(=O)N1CCN(CCn2nc(-c3ccc4[nH]ccc4c3)c3c(N)ncnc32)CC1`, on TGF-beta receptor type-1 [1], the EC50 is 488 nM.

(Values after ChEMBL document CHEMBL5512657, “Design, synthesis and evaluation of a pyrazolo[3,4-d]pyrimidine derivative as a novel and potent TGFβ1R1 inhibitor” (Eur J Med Chem, 2024).)
